Test results: patent publication EP4768499A1, “MACROCYCLIC PEPTIDE COMPOUND HAVING CELL MEMBRANE PERMEABILITY AND METABOLIC STABILITY, AND LIBRARY CONTAINING SAME” (Chugai Seiyaku Kabushiki Kaisha, priority 2023, dated 2025)
Starred links: 1 amine or outer side, 2 acyl side, 3 side chain; linkers in the order of their positions; H or OH if unused. Positions of bridges follow the written chain, without caps; N, C: chain ends. Non-standard residues stand in square brackets, D forms with d. Residues, ends and D or L forms follow the SMILES beside them. *: point of attachment. NMeF = CN[C@@H](Cc1ccccc1)C(=O)O; NMeGABA = CN(CCCC(=O)[*:2])[*:1]; NMeI = CC[C@H](C)[C@H](NC)C(=O)O; NMeT = CN[C@H](C(=O)O)[C@@H](C)O; hPhe = N[C@@H](CCc1ccccc1)C(=O)O; NMeβAla = CN(CCC(=O)[*:2])[*:1]; NMeL = CN[C@@H](CC(C)C)C(=O)O; NMeV = CN[C@H](C(=O)O)C(C)C; d(β3hA) = C[C@@H](N)CC(=O)O; NMeAbu = CC[C@H](NC)C(=O)O; NMeA = CN[C@@H](C)C(=O)O; Piperidide = C1CCN(*)CC1; Abu = CC[C@H](N)C(=O)O; Sar = CNCC(=O)O; tBu = CC(C)(C)*

How the values were obtained:
[1] = Metabolic stability test: liver microsomal stability assay; type: in vitro ADME, mouse; details: mouse liver microsomes 0.5 mg protein/mL, compound 1 µM; for microsomal CLint at 1 µM: male, pH 7.4, presence of NADPH, read-out: Mouse Hepatic Microsome CLh,int NADPH(+); for Mouse Hepatic Microsome CLh,int NADPH(-): absence of NADPH
[2] = Membrane permeability test using Caco-2 cells with preincubation; type: in vitro ADME; details: Caco-2; preincubation 20 to 24 hours; Apical FaSSIF/HBSS pH 6.0, Basal HBSS 4% BSA pH 7.4; 180 minutes; read-out: Caco2 Papp
Caco-2 cells = assay: as above; type: in vitro ADME; details: Caco-2 cells, preincubation 20 to 24 hours; apical FaSSIF/HBSS 1% DMSO pH 6.0, basal HBSS 4% BSA pH 7.4; basal sample at 180 minutes

SMILES	microsomal CLint at 1 µM [1] [µL/min/mg]	Mouse Hepatic Microsome CLh,int NADPH(-) [1] [µL/min/mg Protein]	Papp A→B [2] [×10⁻⁶ cm/s]	Caco2 Papp (10^-6 cm/sec) (Caco-2 cells)
CC[C@@H]1NC(=O)[C@H]([C@@H](C)O)N(C)C(=O)CCN(C)C(=O)[C@H]([C@@H](C)CC)NC(=O)[C@H](Cc2ccccc2)N(C)C(=O)CN(C)C(=O)C[C@@H](C(=O)N2CCCCC2)NC(=O)[C@H]([C@@H](C)CC)N(C)C(=O)[C@H](COC(C)(C)C)NC(=O)[C@@H]2CCCN2C(=O)[C@H](CCc2ccccc2)NC(=O)[C@H](CC)N(C)C(=O)[C@H](C)NC(=O)[C@H](CC(C)C)N(C)C1=O [pd038] ([Sar][NMeF]I[NMeβAla][NMeT][Abu][NMeL]A[NMeAbu][hPhe]PS(tBu)[NMeI]D-Piperidide; lactam N-14)	12	18.1	0.04	0.04 10^-6 cm/sec
CC[C@H](C)[C@H]1C(=O)N[C@@H](Cc2ccccc2)C(=O)N2CCC[C@H]2C(=O)N(C)[C@@H](CC(C)C)C(=O)N[C@@H](COC(C)(C)C)C(=O)N(C)[C@@H](Cc2ccccc2)C(=O)N[C@@H]([C@@H](C)O)C(=O)N(C)[C@@H](CC)C(=O)N2CCC[C@H]2C(=O)N(C)[C@@H](CC(C)C)C(=O)N[C@@H](C(C)C)C(=O)N[C@H](C(=O)N2CCCCC2)CC(=O)N(C)CCCC(=O)N(C)[C@@H](CC(C)C)C(=O)N1C [pd042] ([NMeGABA][NMeL][NMeI]FP[NMeL]S(tBu)[NMeF]T[NMeAbu]P[NMeL]VD-Piperidide; lactam N-14)	32.3	18.1	0.59	0.59 10^-6 cm/sec
CC[C@H](C)[C@H]1C(=O)N[C@@H]([C@@H](C)O)C(=O)N(C)CC(=O)N(C)[C@@H](CC(C)C)C(=O)N(C)[C@@H](Cc2ccccc2)C(=O)N[C@H](C(=O)N2CCCCC2)CC(=O)N(C)[C@@H](C)C(=O)N[C@@H](CC(C)C)C(=O)N(C)[C@@H](Cc2ccccc2)C(=O)N(C)[C@@H](C)C(=O)N(C)[C@@H](CC(C)C)C(=O)N[C@@H](COC(C)(C)C)C(=O)N(C)[C@@H](C)C(=O)N[C@@H](CC(C)C)C(=O)N1C [pd044] ([NMeA]L[NMeF][NMeA][NMeL]S(tBu)[NMeA]L[NMeI]T[Sar][NMeL][NMeF]D-Piperidide; lactam N-14)	54.3	33.1	0.83	0.83 10^-6 cm/sec
CC[C@H](C)[C@@H]1NC(=O)[C@H](C)N(C)C(=O)C[C@@H](C(=O)N2CCCCC2)NC(=O)[C@H](CC)N(C)C(=O)[C@H](COC(C)(C)C)NC(=O)[C@H](CC(C)C)N(C)C(=O)[C@H](C)N(C)C(=O)[C@H](CC(C)C)N(C)C(=O)[C@H](Cc2ccccc2)N(C)C(=O)CN(C)C(=O)[C@H]([C@@H](C)O)NC(=O)[C@H](CC(C)C)N(C)C(=O)[C@H](C(C)C)NC(=O)[C@H](Cc2ccccc2)N(C)C1=O [pd045] ([NMeA]I[NMeF]V[NMeL]T[Sar][NMeF][NMeL][NMeA][NMeL]S(tBu)[NMeAbu]D-Piperidide; lactam N-14)	43.9	26.4	0.32	0.32 10^-6 cm/sec
CC[C@H](C)[C@H]1C(=O)N(C)[C@@H](CC(C)C)C(=O)N[C@H](C(=O)N2CCCCC2)CC(=O)N(C)CCCC(=O)N[C@@H](CC(C)C)C(=O)N(C)[C@@H](CC(C)C)C(=O)N(C)[C@@H](C)C(=O)N(C)[C@@H](Cc2ccccc2)C(=O)N[C@@H](C)C(=O)N(C)[C@@H](Cc2ccccc2)C(=O)N(C)[C@@H](CC)C(=O)N(C)[C@@H](CC(C)C)C(=O)N[C@@H]([C@@H](C)O)C(=O)N(C)[C@@H](C)C(=O)N1C [pd048] ([NMeGABA]L[NMeL][NMeA][NMeF]A[NMeF][NMeAbu][NMeL]T[NMeA][NMeI][NMeL]D-Piperidide; lactam N-14)	30.2	20.7	0.28	0.28 10^-6 cm/sec
CC[C@H]1C(=O)N(C)[C@@H](C)C(=O)N[C@@H](CC(C)C)C(=O)N(C)[C@@H](C(C)C)C(=O)N[C@H](C)CC(=O)N[C@H](C(C)C)C(=O)N(C)[C@@H](CC(C)C)C(=O)N[C@@H](CC(C)C)C(=O)N(C)[C@@H](C(C)C)C(=O)N(C)[C@@H](CC(C)C)C(=O)N(C)CC(=O)N[C@@H]([C@@H](C)O)C(=O)N(C)[C@@H](Cc2ccccc2)C(=O)N[C@@H](COC(C)(C)C)C(=O)N1C [pd049] (cyclo(L[NMeV][NMeL][Sar]T[NMeF]S(tBu)[NMeAbu][NMeA]L[NMeV][d(β3hA)][dV][NMeL]))	30.6	29.1	0.32	0.32 10^-6 cm/sec

Second part, the compound after the results:

microsomal CLint at 1 µM [1] [µL/min/mg]	Mouse Hepatic Microsome CLh,int NADPH(-) [1] [µL/min/mg Protein]	Papp A→B [2] [×10⁻⁶ cm/s]	Caco2 Papp (10^-6 cm/sec) (Caco-2 cells)	SMILES
18.3	17.7	0.26	0.26 10^-6 cm/sec	CC[C@H](C)[C@H]1C(=O)N[C@@H]([C@@H](C)O)C(=O)N(C)CC(=O)N(C)[C@@H](CC(C)C)C(=O)N[C@@H](CC(C)C)C(=O)N[C@H](C(=O)N2CCCCC2)CC(=O)N(C)[C@@H](C)C(=O)N[C@@H](CC(C)C)C(=O)N(C)[C@@H](CC(C)C)C(=O)N[C@@H](C(C)C)C(=O)N(C)CCC(=O)N(C)[C@@H](Cc2ccccc2)C(=O)N[C@@H](C)C(=O)N(C)[C@@H](Cc2ccccc2)C(=O)N1C [pd037] ([NMeA]L[NMeL]V[NMeβAla][NMeF]A[NMeF][NMeI]T[Sar][NMeL]LD-Piperidide; lactam N-14)
21.4	15.6	0.03	0.03 10^-6 cm/sec	CC[C@H](C)[C@@H]1NC(=O)[C@H](CC(C)C)N(C)C(=O)CN(C)C(=O)C[C@@H](C(=O)N2CCCCC2)NC(=O)[C@H](C)N(C)C(=O)CNC(=O)[C@H](C(C)C)N(C)C(=O)[C@H](C)N(C)C(=O)[C@H](Cc2ccccc2)N(C)C(=O)[C@H](C(C)C)NC(=O)[C@H](CC(C)C)NC(=O)[C@H](Cc2ccccc2)N(C)C(=O)[C@H]([C@@H](C)O)NC(=O)[C@H](CC(C)C)N(C)C1=O [pd039] ([Sar][NMeL]I[NMeL]T[NMeF]LV[NMeF][NMeA][NMeV]G[NMeA]D-Piperidide; lactam N-14)
24.8	22.3	0.17	0.17 10^-6 cm/sec	CC(C)C[C@@H]1NC(=O)[C@H]([C@@H](C)O)N(C)C(=O)[C@@H](C(C)C)NC(=O)C[C@@H](C(=O)N2CCCCC2)NC(=O)[C@H](C(C)C)N(C)C(=O)[C@H](C)N(C)C(=O)[C@H](C(C)C)NC(=O)[C@H](Cc2ccccc2)N(C)C(=O)[C@@H]2CCCN2C(=O)[C@H](CC(C)C)N(C)C(=O)CN(C)C(=O)[C@H](CCc2ccccc2)NC(=O)[C@H](CC(C)C)N(C)C(=O)[C@H](C(C)C)N(C)C1=O [pd040] ([dV][NMeT]L[NMeV][NMeL][hPhe][Sar][NMeL]P[NMeF]V[NMeA][NMeV]D-Piperidide; lactam N-14)
25.1	23.5	0.13	0.13 10^-6 cm/sec	CC[C@H](C)[C@@H]1NC(=O)[C@H](C)N(C)C(=O)[C@H]([C@@H](C)O)NC(=O)[C@H](CC(C)C)N(C)C(=O)[C@H](CC)N(C)C(=O)[C@H](Cc2ccccc2)N(C)C(=O)[C@H](C)NC(=O)[C@H](Cc2ccccc2)N(C)C(=O)[C@H](C)N(C)C(=O)[C@H](CC(C)C)N(C)C(=O)[C@H](CC(C)C)NC(=O)CCCN(C)C(=O)C[C@@H](C(=O)N2CCCCC2)NC(=O)[C@H](CC(C)C)N(C)C1=O [pd041] ([NMeGABA]L[NMeL][NMeA][NMeF]A[NMeF][NMeAbu][NMeL]T[NMeA]I[NMeL]D-Piperidide; lactam N-14)
40.7	34.8	0.16	0.16 10^-6 cm/sec	CC[C@H](C)[C@@H]1NC(=O)[C@@H]2CCCN2C(=O)[C@H](CC(C)C)N(C)C(=O)[C@H](CC(C)C)NC(=O)[C@H]([C@@H](C)CC)N(C)C(=O)[C@H]([C@@H](C)O)NC(=O)[C@H](Cc2ccccc2)N(C)C(=O)[C@H](CC)N(C)C(=O)[C@H](Cc2ccccc2)N(C)C(=O)[C@H](C(C)C)NC(=O)[C@H](CC(C)C)N(C)C(=O)[C@H](C)N(C)C(=O)C[C@@H](C(=O)N2CCCCC2)NC(=O)[C@H](C(C)C)N(C)C1=O [pd043] ([NMeA][NMeL]V[NMeF][NMeAbu][NMeF]T[NMeI]L[NMeL]PI[NMeV]D-Piperidide; lactam N-14)
6.2	5.4	0.06	0.06 10^-6 cm/sec	CC[C@@H]1NC(=O)[C@H](C)N(C)C(=O)[C@H](CC(C)C)N(C)C(=O)[C@H]([C@@H](C)O)N(C)C(=O)[C@H](CC(C)C)N(C)C(=O)[C@H](C)NC(=O)[C@H](Cc2ccccc2)N(C)C(=O)CN(C)C(=O)C[C@@H](C(=O)N2CCCCC2)NC(=O)[C@H](C(C)C)N(C)C(=O)[C@H](C)NC(=O)[C@@H]2CCCN2C(=O)[C@H](C(C)C)NC(=O)[C@H](Cc2ccccc2)N(C)C1=O [pd046] ([Sar][NMeF]A[NMeL][NMeT][NMeL][NMeA][Abu][NMeF]VPA[NMeV]D-Piperidide; lactam N-14)
41.4	30.0	0.16	0.16 10^-6 cm/sec	CC(C)C[C@H]1C(=O)N2CCC[C@H]2C(=O)N(C)[C@@H](Cc2ccccc2)C(=O)N[C@@H](C(C)C)C(=O)N(C)[C@@H](C)C(=O)N(C)[C@@H](C(C)C)C(=O)N[C@H](C(=O)N2CCCCC2)CC(=O)N[C@H](C(C)C)C(=O)N(C)[C@@H]([C@@H](C)O)C(=O)N(C)[C@@H](CC(C)C)C(=O)N(C)[C@@H](C(C)C)C(=O)N(C)[C@@H](CC(C)C)C(=O)N[C@@H](CCc2ccccc2)C(=O)N(C)CC(=O)N1C [pd047] ([dV][NMeT][NMeL][NMeV][NMeL][hPhe][Sar][NMeL]P[NMeF]V[NMeA][NMeV]D-Piperidide; lactam N-14)
